Drawing on ChEMBL document CHEMBL3792337, “Cardiac Glycosides from the Seeds of Thevetia peruviana” (J Nat Prod, 2016), this text covers IC50 for 23 compounds.

As a reminder, the IC50 is the concentration needed to halve the response being measured.

Assay [1] can be described thus: Cytotoxicity against human P15 cells after 48 hrs by MTT assay. Format: functional, cell-based. The settings on record: P15, 48 h. For orientation: Tetrazolium assays rely on reduction of a dye to a coloured formazan, in cell work by metabolically active cells.
Assay [2] in a line: Cytotoxicity against human MGC803 cells after 48 hrs by MTT assay. The settings on record: MGC-803, 48 h. In kind it is functional, cell-based.
Assay [3] has as its system SW1990. Description: Cytotoxicity against human SW1990 cells after 48 hrs by MTT assay. The settings on record: SW1990, 48 h. In kind it is functional, cell-based.
Assay [4] can be described thus: Cytotoxicity against human LO2 cells after 48 hrs by MTT assay. In kind it is cell-based. The conditions noted are these: L02, 48 h.

Take `CO[C@H]1[C@H](O)[C@H](O[C@H]2CC[C@@]3(C)[C@@H](CC[C@@H]4[C@@H]3CC[C@]3(C)[C@@H](C5=CC(=O)OC5)CC[C@]43O)C2)O[C@@H](C)[C@@H]1O[C@H]1O[C@@H](CO[C@@H]2O[C@H](CO)[C@@H](O)[C@H](O)[C@H]2O)[C@H](O)[C@@H](O)[C@@H]1O`: the IC50 is 10 µM in assay [1], 8.32 µM in assay [2], more than 10 µM in assay [3] and more than 10 µM in assay [4].

On to `CO[C@H]1[C@@H](O)[C@H](O[C@H]2CC[C@@]3(C)[C@H](CC[C@@H]4[C@@H]3CC[C@]3(C)[C@@H](C5=CC(=O)OC5)CC[C@]43O)C2)O[C@@H](C)[C@@H]1O[C@H]1O[C@@H](CO)[C@H](O)[C@@H](O)[C@@H]1O`, for which the IC50 in assay [1] was 1.5 µM; in assay [2] it was more than 10 µM; in assay [3] it was 1.69 µM; in assay [4], more than 10 µM.

Turning to `CO[C@H]1[C@H](OC(C)=O)[C@H](O[C@@H]2CC[C@]3(C=O)[C@@H](CC[C@H]4[C@H]3CC[C@@]3(C)[C@H](C5=CC(=O)OC5)CC[C@@]43O)C2)O[C@@H](C)[C@@H]1O[C@H]1O[C@@H](CO[C@@H]2O[C@H](CO)[C@@H](O)[C@H](O)[C@H]2O)[C@H](O)[C@@H](O)[C@@H]1O`, the IC50 in assay [1] is more than 10 µM; in assay [2], 9.53 µM; in assay [3] it was more than 10 µM; in assay [4], more than 10 µM.

Take `CO[C@@H]1[C@@H](O)[C@@H](O[C@H]2CC[C@@]3(C(=O)O)[C@H](CC[C@@H]4[C@@H]3CC[C@]3(C)[C@@H](C5=CC(=O)OC5)CC[C@]43O)C2)O[C@H](C)[C@H]1O[C@@H]1O[C@H](CO)[C@@H](O)[C@H](O)[C@H]1O`: the concentration for half-maximal inhibition (IC50) in assay [1], in assay [2], in assay [3] and in assay [4] was more than 10 µM in each case.

Turning to `CO[C@H]1[C@@H](O)[C@H](O[C@H]2CC[C@@]3(C)[C@H](CC[C@@H]4[C@@H]3CC[C@]3(C)[C@@H](C5=CC(=O)OC5)CC[C@]43O)C2)O[C@@H](C)[C@@H]1O[C@H]1O[C@@H](CO[C@@H]2O[C@H](CO)[C@@H](O)[C@H](O)[C@H]2O)[C@H](O)[C@@H](O)[C@@H]1O`, the IC50 in assay [1] is 6.02 µM; in assay [2], 1.93 µM; in assay [3] it was 7.28 µM; in assay [4], more than 10 µM.

For the compound `CO[C@H]1[C@H](O)[C@H](O[C@H]2CC[C@@]3(C)[C@H](CC[C@@H]4[C@@H]3CC[C@]3(C)[C@@H](C5=CC(=O)OC5)CC[C@]43O)C2)O[C@@H](C)[C@@H]1O[C@H]1O[C@@H](CO)[C@H](O)[C@@H](O)[C@@H]1O`, the IC50 in assay [1] was 0.4 µM; in assay [2], 0.42 µM; in assay [3], 0.62 µM; in assay [4] it was more than 10 µM.

As to `CO[C@H]1[C@H](OC(C)=O)[C@H](O[C@H]2CC[C@@]3(C)[C@H](CC[C@@H]4[C@@H]3CC[C@]3(C)[C@@H](C5=CC(=O)OC5)CC[C@]43O)C2)O[C@@H](C)[C@@H]1O[C@H]1O[C@@H](CO)[C@H](O)[C@@H](O)[C@@H]1O`, the IC50 in assay [1] is 2.84 µM; in assay [2] it was 3.21 µM; in assay [3] it was 1.84 µM; in assay [4] it was more than 10 µM.

In the case of `CO[C@H]1[C@H](O)[C@H](O[C@H]2CC[C@@]3(OO)[C@H](CC[C@@H]4[C@@H]3CC[C@]3(C)[C@@H](C5=CC(=O)OC5)CC[C@]43O)C2)O[C@@H](C)[C@@H]1O[C@@H]1O[C@H](CO[C@@H]2O[C@H](CO)[C@@H](O)[C@H](O)[C@H]2O)[C@@H](O)[C@H](O)[C@H]1O`, the concentration for half-maximal inhibition (IC50) in assay [1] was more than 10 µM; in assay [2], more than 10 µM; in assay [3], 3.62 µM; in assay [4], more than 10 µM.

Regarding `CO[C@@H]1[C@@H](O)[C@@H](O[C@@H]2CC[C@]3(CO)[C@@H](CC[C@H]4[C@H]3CC[C@@]3(C)[C@H](C5=CC(=O)OC5)CC[C@@]43O)C2)O[C@H](C)[C@H]1O[C@@H]1O[C@H](CO)[C@@H](O)[C@H](O)[C@H]1O`, the IC50 was 0.12 µM in assay [1], 0.32 µM in assay [2], 0.13 µM in assay [3] and more than 10 µM in assay [4].

On to `CO[C@@H]1[C@@H](O)[C@@H](O[C@@H]2CC[C@]3(OO)[C@@H](CC[C@H]4[C@H]3CC[C@@]3(C)[C@H](C5=CC(=O)OC5)CC[C@@]43O)C2)O[C@H](C)[C@H]1O[C@@H]1O[C@H](CO)[C@@H](O)[C@H](O)[C@H]1O`, for which the half-maximal inhibitory concentration (IC50) in assay [1] is 7.29 µM; in assay [2] it was more than 10 µM; in assay [3], more than 10 µM; in assay [4] it was more than 10 µM.

With `CO[C@H]1[C@H](O)[C@H](O[C@H]2CC[C@@]3(C)[C@@H](CC[C@@H]4[C@@H]3CC[C@]3(C)[C@@H](C5=CC(=O)OC5)CC[C@]43O)C2)O[C@@H](C)[C@@H]1O[C@H]1O[C@@H](CO)[C@H](O)[C@@H](O)[C@@H]1O`, the IC50 in assay [1] is 2.68 µM; in assay [2], 3.42 µM; in assay [3], 4.54 µM; in assay [4] it was more than 10 µM.

As to `CO[C@H]1[C@H](O)[C@H](O[C@H]2CC[C@@]3(C=O)[C@H](CC[C@@H]4[C@@H]3CC[C@]3(C)[C@@H](C5=CC(=O)OC5)CC[C@]43O)C2)O[C@@H](C)[C@@H]1O` [PERUVOSIDE], the IC50 in assay [1] was 0.03 µM; in assay [2], 0.02 µM; in assay [3], 0.02 µM; in assay [4], more than 10 µM.

In the case of `CO[C@H]1[C@H](O)[C@H](O[C@H]2CC[C@H]3[C@H](CC[C@@H]4[C@@H]3CC[C@]3(C)[C@@H](C5=CC(=O)OC5)CC[C@]43O)C2)O[C@@H](C)[C@@H]1O[C@@H]1O[C@H](CO[C@@H]2O[C@H](CO)[C@@H](O)[C@H](O)[C@H]2O)[C@@H](O)[C@H](O)[C@H]1O`, the IC50 was more than 10 µM in assay [1], 8.18 µM in assay [2], 3.13 µM in assay [3] and more than 10 µM in assay [4].

Take `CO[C@H]1[C@H](O)[C@H](O[C@H]2CC[C@@]3(O)[C@H](CC[C@@H]4[C@@H]3CC[C@]3(C)[C@@H](C5=CC(=O)OC5)CC[C@]43O)C2)O[C@@H](C)[C@@H]1O`: the concentration for half-maximal inhibition (IC50) is 1.52 µM in assay [1], 2.14 µM in assay [2], 0.49 µM in assay [3] and more than 10 µM in assay [4].

Turning to `CO[C@H]1[C@H](OC(C)=O)[C@H](O[C@H]2CC[C@@]3(C)[C@H](CC[C@@H]4[C@@H]3CC[C@]3(C)[C@@H](C5=CC(=O)OC5)CC[C@]43O)C2)O[C@@H](C)[C@@H]1O[C@H]1O[C@@H](CO[C@@H]2O[C@H](CO)[C@@H](O)[C@H](O)[C@H]2O)[C@H](O)[C@@H](O)[C@@H]1O`, the half-inhibitory concentration (IC50) in assay [1] was 4.75 µM; in assay [2], 7.04 µM; in assay [3], 5.82 µM; in assay [4], more than 10 µM.

Turning to `CO[C@@H]1[C@@H](O)[C@@H](O[C@@H]2CC[C@]3(C=O)[C@@H](CC[C@H]4[C@H]3CC[C@@]3(C)[C@H](C5=CC(=O)OC5)CC[C@@]43O)C2)O[C@H](C)[C@H]1O[C@@H]1O[C@H](CO)[C@@H](O)[C@H](O)[C@H]1O`, the 50% inhibitory concentration (IC50) was 1.46 µM in assay [1], 5.32 µM in assay [2], 0.64 µM in assay [3] and more than 10 µM in assay [4].

As for `CO[C@H]1[C@H](O)[C@H](O[C@H]2CC[C@@]3(O)[C@H](CC[C@@H]4[C@@H]3CC[C@]3(C)[C@@H](C5=CC(=O)OC5)CC[C@]43O)C2)O[C@@H](C)[C@@H]1O[C@H]1O[C@@H](CO)[C@H](O)[C@@H](O)[C@@H]1O`, the IC50 in assay [1], in assay [2], in assay [3] and in assay [4] was more than 10 µM in each case.

For `O=c1[nH]cc(F)c(=O)[nH]1` [FLUOROURACIL], the 50% inhibitory concentration (IC50) in assay [1] is 89.2 µM; in assay [2], 68.3 µM; in assay [3] it was 126 µM; in assay [4] it was more than 10 µM.

`CO[C@@H]1[C@H](O)[C@@H](O[C@@H]2CC[C@]3(CO)[C@@H](CC[C@H]4[C@H]3CC[C@@]3(C)[C@H](C5=CC(=O)OC5)CC[C@@]43O)C2)O[C@H](C)[C@H]1O[C@@H]1O[C@H](CO)[C@@H](O)[C@H](O)[C@H]1O`: the half-maximal inhibitory concentration (IC50) in assay [1] was 4.91 µM; in assay [2], 5.75 µM; in assay [3], 2.14 µM; in assay [4], more than 10 µM.

For the compound `CO[C@H]1[C@H](O)[C@H](O[C@H]2CC[C@H]3[C@H](CC[C@@H]4[C@@H]3CC[C@]3(C)[C@@H](C5=CC(=O)OC5)CC[C@]43O)C2)O[C@@H](C)[C@@H]1O[C@H]1O[C@@H](CO)[C@H](O)[C@@H](O)[C@@H]1O`, the IC50 is 3.35 µM in assay [1], more than 10 µM in assay [2], 8.1 µM in assay [3] and more than 10 µM in assay [4].

For the compound `CO[C@H]1[C@H](O)[C@H](O[C@@H]2CC[C@]3(C(=O)O)[C@@H](CC[C@H]4[C@H]3CC[C@@]3(C)[C@H](C5=CC(=O)OC5)CC[C@@]43O)C2)O[C@@H](C)[C@@H]1O[C@H]1O[C@@H](CO[C@@H]2O[C@H](CO)[C@@H](O)[C@H](O)[C@H]2O)[C@H](O)[C@@H](O)[C@@H]1O`, the concentration for half-maximal inhibition (IC50) in assay [1], in assay [2], in assay [3] and in assay [4] was more than 10 µM in each case.

Take `CO[C@H]1[C@H](OC(C)=O)[C@H](O[C@@H]2CC[C@]3(C=O)[C@@H](CC[C@H]4[C@H]3CC[C@@]3(C)[C@H](C5=CC(=O)OC5)CC[C@@]43O)C2)O[C@@H](C)[C@@H]1O[C@H]1O[C@@H](CO)[C@H](O)[C@@H](O)[C@@H]1O`: the 50% inhibitory concentration (IC50) in assay [1] is 0.59 µM; in assay [2], 1.23 µM; in assay [3] it was 0.97 µM; in assay [4], more than 10 µM.

In the case of `CO[C@H]1[C@H](O)[C@H](O[C@H]2CC[C@@]3(C)[C@H](CC[C@@H]4[C@@H]3CC[C@]3(C)[C@@H](C5=CC(=O)OC5)CC[C@]43O)C2)O[C@@H](C)[C@@H]1O[C@H]1O[C@@H](CO[C@@H]2O[C@H](CO)[C@@H](O)[C@H](O)[C@H]2O)[C@H](O)[C@@H](O)[C@@H]1O`, the concentration for half-maximal inhibition (IC50) is 3.97 µM in assay [1], more than 10 µM in assay [2], 4.56 µM in assay [3] and more than 10 µM in assay [4].
